The source of these data is PMC3907537, “Evaluation of the Endothelin Receptor Antagonists Ambrisentan, Bosentan, Macitentan, and Sitaxsentan as Hepatobiliary Transporter Inhibitors and Substrates in Sandwich-Cultured Human Hepatocytes” (PLoS ONE, 2014).

This assay deals with sandwich-cultured human hepatocytes. The assay is described as follows: ERA effect on hepatobiliary disposition of d8-taurocholate (B-CLEAR sandwich culture). The assay is classed as cell-based. The note with it: 100 µM control inhibitor. As to the method: Sandwich-cultured human hepatocytes were obtained from Celsis/IVT (Baltimore, MD) or Life Technologies (Durham, NC). Donors were male (n = 3) and female (n = 1) between the ages of 31 and 62 years old. Hepatic uptake, biliary excretion and in vitro biliary clearance (Clb) were determined using the B-CLEAR® hepatocyte sandwich culture model as described by Liu et al., 1999 [34]. In this system, hepatocytes form functional bile canalicular networks while maintaining the expression and function of key uptake and efflux transporters. The canalicular system of bile pockets remains separate from the cellular culture media due to tight junctions between cells. The integrity of these tight junctions is maintained in the presence of calcium (Plus (+) buffer) while in the absence of calcium (Minus (−) buffer), these tight junctions open and release the contents of the canalicular network into the media.
A dose solution containing 2.5 µM d8-taurocholic acid (d8-TCA) was prepared in Plus (+) Buffer. Co-incubation solutions were prepared by combining d8-TCA dose solution and ERA or rifamycin-SV. Hepatocytes were washed and then conditioned for 10 min in warm Plus (+) or Minus (−) buffer with and without ERA or rifamycin-SV. Pre-incubation solutions were then removed and replaced with dose or co-incubation solutions and incubated for 10 min at 37°C. Following this 10 minute incubation, the dose or co-incubation solutions were removed and the cells were then washed three times with ice-cold Plus (+) buffer. The plates were then frozen at −80°C until processed for bioanalysis.
Study samples were stored in their original 24-well plates at −80°C until prepared for analysis. A volume of 500 µL of cell lysis solution (70∶30 methanol:water) containing 25 nM internal standard was added to each well and mixed for 20 min of mixing. The volume in each well was then transferred to a 96-well filter plate stacked on a Greiner deep well collection plate. The filter plate/collection plate was then centrifuged at 2000 rcf for 5 min. The filtrate was then evaporated to dryness under nitrogen. Samples were reconstituted in 200 µL of sample diluent (60∶40 methanol:10 mM ammonium acetate, native pH), sealed, and placed on a plate shaker for 15 min. These samples were then transferred to a Whatman 96-well 0.45 µm PVDF filter plate stacked on a Costar 3956 plate (HPLC injection plate), centrifuged at 2000 rcf for 2–3 min, and sealed with a silicon cap mat prior to LC-MS/MS analysis. d8-TCA standard spiking solutions were prepared in 50∶50 methanol:water. For a given lysate standard or control, 10 µL was added to each well of a previously frozen analytical plate. Standards representing 0.5–100 pmoles/well and QC’s at the LLQ and ULQ were prepared. These lysate standards and controls were then further processed as described above for unknown study samples. Prepared samples were filtered and analyzed by LC-MS/MS using a Shimadzu binary HPLC system (Columbia, MD) and tandem mass spectrometry using Thermo Electron TSQ® Quantum Discovery MAX™ (Waltham, MA) with an Ion Max ESI source operating in negative ion electrospray ionization mode. Results for unknowns and QCs were calculated using a standard curve based on an internal standard processing method.
Data calculations were performed using Microsoft Excel, 2010 with all values reported as mean ± standard deviation (SD). Statistical comparisons across ERA treatments were performed using analysis of variance (ANOVA) with Fisher’s PLSD post hoc analysis (Statview 5.0, SAS Institute, Cary NC); statistical significance was considered to be P<0.05. All mass values were normalized to mg protein by taking the average protein mass in the taurocholate plate determined using a BCA protein assay (Pierce Biotechnology, Rockford, IL). Cellular accumulation determined in Minus (−) buffer (Accumulation Minus (−) Buffer) represents the total mass of analyte inside the hepatocyte at the end of the incubation time period. […]

On to `CO[C@H]1/C=C/O[C@@]2(C)Oc3c(C)c(O)c4c(O)c(cc(O)c4c3C2=O)NC(=O)/C(C)=C\C=C\[C@H](C)[C@H](O)[C@@H](C)[C@@H](O)[C@@H](C)[C@H](OC(C)=O)[C@@H]1C` [rifamycin-SV], for which the “d8-TCA Clb in the presence of control inhibitor” value (untreated control 19.9±7.8) was 4.5 ± 2.1 mL/min/kg. Also, the “d8-TCA BEI in the presence of control inhibitor” value (untreated control 74.7%) was determined as 57.1%.
